Data reported in ChEMBL document CHEMBL1152178, “Calmodulin inhibitory activity of the malbrancheamides and various analogs” (Bioorg Med Chem Lett, 2008).

Assays:
[1] = Inhibition of bovine brain PDE1; design: species or system Bos taurus
[2] = organism: Bos taurus; experiment: Ratio of IC50 of chlorpromazine to IC50 of compound for bovine brain PDE1

| Compound | IC50 [1] [µM] | Ratio IC50 [2] |
| --- | --- | --- |
| CC1(C)c2[nH]c3ccc(Cl)c(Cl)c3c2C[C@@]23NC(=O)[C@]4(CCCN4C2=O)C[C@H]13 | 45.4 | 0.2 |
| CC1(C)c2[nH]c3cc(Cl)c(Cl)cc3c2C[C@@]23CN4CCC[C@]4(C[C@@H]12)C(=O)N3 | 19.3 | 0.9 |
| CC1(C)c2[nH]c3ccc(Cl)cc3c2C[C@@]23NC(=O)[C@]4(CCCN4C2=O)C[C@@H]13 | 31.5 | 0.4 |
| CC1(C)c2[nH]c3cc(Cl)c(Cl)cc3c2C[C@@]23NC(=O)[C@]4(CCCN4C2=O)C[C@@H]13 | 18.6 | 0.9 |
| CC1(C)c2[nH]c3cc(Cl)ccc3c2CC23CN4CCCC4(CC21)C(=O)N3 (racemic) [D,L-MALBRANCHEAMIDE B] | 42.9 | 0.3 |
| CC1(C)c2[nH]c3ccccc3c2C[C@@]23NC(=O)[C@]4(CCCN4C2=O)C[C@@H]13 | 151 | 0.1 |
| CC1(C)c2[nH]c3ccc(Cl)cc3c2C[C@@]23NC(=O)[C@]4(CCCN4C2=O)C[C@H]13 | 62.3 | 0.2 |
| CC1(C)c2[nH]c3cc(Cl)ccc3c2C[C@@]23CN4CCC[C@]4(C[C@@H]12)C(=O)N3 [MALBRANCHEAMIDE B] | 183 | 0.1 |
| CC1(C)c2[nH]c3ccccc3c2C[C@@]23NC(=O)[C@]4(CCCN4C2=O)C[C@H]13 | 23.6 | 0.7 |
| CC1(C)c2[nH]c3cc(Cl)c(Cl)cc3c2C[C@@]23NC(=O)[C@]4(CCCN4C2=O)C[C@H]13 | 33.9 | 0.5 |
| CC1(C)c2[nH]c3cc(Cl)c(Cl)cc3c2C[C@@]23NC[C@]4(CCCN4C2=O)C[C@H]13 | 12 | 0.9 |
| CC1(C)c2[nH]c3ccc(Cl)c(Cl)c3c2C[C@@]23CN4CCC[C@]4(C[C@H]12)C(=O)N3 | 81.2 | 0.1 |
| CC1(C)c2[nH]c3cc(Cl)c(Cl)cc3c2CC23CN4CCCC4(CC21)C(=O)N3 (racemic) | 16 | 1.1 |
| CC1(C)c2[nH]c3ccc(Cl)c(Cl)c3c2C[C@@]23NC[C@]4(CCCN4C2=O)C[C@H]13 | 27.5 | 0.4 |
| CC1(C)c2[nH]c3cc(Cl)c(Cl)cc3c2C[C@@]23CN4CCC[C@]4(C[C@H]12)C(=O)N3 | 134 | 0.1 |
| CC1(C)c2[nH]c3ccccc3c2C[C@@]23CN4CCC[C@]4(C[C@@H]12)C(=O)N3 | 35.7 | 0.5 |
| CC1(C)c2[nH]c3cc(Cl)ccc3c2C[C@@]23NC(=O)[C@]4(CCCN4C2=O)C[C@@H]13 | 61.8 | 0.2 |
| CC1(C)c2[nH]c3ccc(Cl)cc3c2C[C@@]23CN4CCC[C@]4(C[C@@H]12)C(=O)N3 | 60.3 | 0.2 |
| CC1(C)c2[nH]c3cc(Cl)ccc3c2C[C@@]23NC(=O)[C@]4(CCCN4C2=O)C[C@H]13 | 42.8 | 0.3 |
